Earlier results, collected in PMC3591469 (Bioorganic & medicinal chemistry letters, 2011).

Tested on: recombinant Brd4 protein derived from bacteria
Settings: cell-permeable small molecule

In the case of Cc1sc2c(c1C)C(c1ccc(Cl)cc1)=N[C@@H](CC(=O)OC(C)(C)C)c1nnc(C)n1-2 [JQ1], the “inhibition of recombinant Brd4” value is listed as “selective and potent inhibitor”.
